According to patent US5063245A, “Corticotropin-releasing factor antagonism compounds” (Nova Pharmaceutical Corporation, priority 1990, dated 1991):
Where a name gives a salt, the structure may show the parent alone. Read-outs that look alike come from different tables or passages of the source.

How the values were obtained:
[1] = molecular target: CRF-stimulated adenylate cyclase; assay: Inhibition of CRF-stimulated adenylate cyclase activity (rat frontal cortex); assay type: biochemical; settings: 1 μM oCRF, 37° C., 10 minutes
Source text: CRF antagonist activity is established by the ability of the compounds to antagonize CRF-stimulated adenylate cyclase activity, it having been established that CRF receptors are coupled to a guanine nucleotide regulatory protein that activates adenylate cyclase [G. Aguilera et al., Neuroendocrinology, 43, 79 (1986); G. Battaglia et al., Synapse, 1, 572 (1987)].
Male Sprague-Dawley rats (175-250 g) were sacrificed by decapitation, the frontal cortex was dissected and homogenized in 30 volumes (w/v) of ice-cold buffer (50 mM Tris HCl, 10 mM MgCl2, 2 mM EGTA; pH 7.2 at 22° C.). The homogenate was centrifuged at 40,000×g for 3 minutes (4° C.), the supernatant discarded and the pellet resuspended in original volume of fresh homogenization buffer. Following centrifugation at 40,000×g for 30 minutes, the resulting pellet was suspended to a tissue concentration of 20 mg original wet weight of tissue per mL (approximately 40-60 μg protein/mL). For determination of basal adenylate cyclase activity, assays are carried out at 37° C. for 10 minutes in 250 μL of buffer containing 100 mM Tris HCl, 10 mM MgCl2, 0.4 mM EGTA, 0.1% BSA, 1 mM isobutylmethylxanthine (IBMX), 3 units/tube phosphocreatine kinase, 5 mM creatine phosphate, 100 μM guanosine. Maximal stimulation of adenylate cyclase activity was accomplished by the addition of 10^-6 M oCRF. Stimulated enzyme activity generally represented a 75-95% increase over basal levels. Reactions were initiated by the addition of tissue and terminated by the addition of 150 μL of 50 mM Tris HCl, 45 mM ATP, 2% sodium dodecyl sulfate (SDS), and [^3 H] cAMP (approximately 40,000 dpm). The [^3 H]cAMP was added to each assay tube to monitor recovery of cAMP during subsequent chromatography steps. Separation of [^32 P]cAMP from [^32 P]ATP was accomplished by sequential elution over Dowex and alumina columns. The eluate (4 mL) was collected in 20 mL scintillation vials to which 8 mL of Beckman EP fluor was added. Vials were shaken for 30 minutes prior to measuring ^3 H and ^32 P by scintillation counting. All data were fed directly from the liquid scintillation counter via RS232 port to a VAX 8300 computer. Individual data points were expressed as pmoles of cAMP formed/10 minutes/mg protein. Protein content of tissue samples was measured using the BioRad method with bovine serum albumin serving as the standard.
Determination of antagonist activity was accomplished by addition of at least six concentrations of the compound (10^-8 -10^-4 M), evaluated in triplicate, in the presence of a maximally stimulating concentration of oCRF (1 μM). IC50 values were derived from a log-logit transformation of the data on a Vax 8300.

CRF receptor = molecular target: T1, CRF receptor (Rattus norvegicus, UniProt P35353); assay: In vitro receptor binding: inhibition of specific binding of [125I]tyrosine-oCRF to rat cerebral cortex membranes; settings: [125I]Tyr-oCRF 50-100 pM, 2 hours at room temperature
T1 construct: the cerebral cortex was removed and the tissue homogenized; from tissue; host or cells: cerebral cortex membranes of male Sprague-Dawley rats
T1 sequence (P35353 24-415): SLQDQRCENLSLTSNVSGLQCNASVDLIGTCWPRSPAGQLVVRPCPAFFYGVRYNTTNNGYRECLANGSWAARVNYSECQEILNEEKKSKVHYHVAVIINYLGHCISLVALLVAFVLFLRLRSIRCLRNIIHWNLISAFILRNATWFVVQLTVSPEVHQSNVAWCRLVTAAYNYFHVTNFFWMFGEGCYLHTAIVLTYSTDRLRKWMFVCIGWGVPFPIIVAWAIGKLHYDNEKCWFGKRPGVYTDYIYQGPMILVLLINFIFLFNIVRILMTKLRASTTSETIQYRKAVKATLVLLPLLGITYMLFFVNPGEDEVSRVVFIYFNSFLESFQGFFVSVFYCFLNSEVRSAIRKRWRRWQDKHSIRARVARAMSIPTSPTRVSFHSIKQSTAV
Procedure: The potency of the compounds of the invention as inhibitors of the specific binding of radiolabeled CRF to rat cerebral cortex membranes was examined using a standard in vitro radioligand binding technique. […] The homogenate was centrifuged at 48,000×g for 10 minutes at 4° C. The supernatant was removed, the tissue pellet suspended in the original volume of fresh homogenization buffer using a Polytron and centrifuged as before. […] Incubation buffer consists of 50 mM Hepes (pH 7.0 at 22° C.) containing 10 mM MgCl2, 2 mM EGTA, 0.1 mM bacitracin, 100 KIU (kallikrein inhibitor units)/mL aprotinin and 0.1% BSA (bovine serum albumin). […] Nonspecific binding was determined in the presence of 1 μM oCRF. The binding reaction was allowed to proceed for 2 hours at room temperature. Bound radioligand was separated from the incubation medium by centrifugation in a Beckman microfuge for 5 minutes at 12,000×g. The supernatant was aspirated and the resulting pellet was washed with 1 mL of cold phosphate buffered saline (pH 7.2) containing 0.01% of Triton X-100.
Tyr-oCRF to rat cortical membranes was determined on at least three separate occasions using 8-10 concentrations of each compound and utilizing triplicate incubations. The IC50 and apparent Hill coefficient for each compound were calculated using a computer-assisted log-logit analysis.

[2] = Table I, Formula I, read-out: Inhibition of CRF Binding, Rat Cerebral Cortex Membrane, IC50
[3] = Table II, Formula II (disulfides)
[4] = Table II, Formula II (disulfides), read-out: Inhibition of CRF Binding, Rat Cerebral Cortex Membrane, IC50
[5] = Inhibition of CRF Binding, Rat Cerebral Cortex Membrane, IC50, Table I, Formula I

| Structure (SMILES) | IC50 ([1]; Table I, Formula I) [µM] | IC50 (CRF receptor; [2]) [µM] | IC50 (CRF receptor; [4]) [µM] | other results |
| --- | --- | --- | --- | --- |
| Cc1c(SC#N)c(=O)n(C2CCCCC2)n1C [Formula I: C6 H11, CH3, CH3, SCN, 1-cyclohexyl-2,3-dimethyl-5-oxo-3-pyrazolin-4-yl thiocyanate] | 35.2 | 15 | – | – |
| CCc1c(SSc2c(CC)n(C)n(-c3ccccc3)c2=O)c(=O)n(-c2ccccc2)n1C [Formula II: Ph, CH3, C2 H5, 3-ethyl-2-methyl-5-oxo-1-phenyl-3-pyrazolin-4-yl disulfide] | – | – | 3.3 | IC50 [1, 3]: 3.3 µM |
| CCn1c(C)c(SC#N)c(=O)n1-c1cccc(Cl)c1 [Formula I: 3-ClPh, C2 H5, CH3, SCN, 2-ethyl-3-methyl-5-oxo-1-(3-chlorophenyl)-3-pyrazolin-4-yl thiocyanate] | 6.9 | 7.4 | – | – |
| CCc1c(SC#N)c(=O)n(CC)n1CC [Formula I: C2 H5, C2 H5, C2 H5, SCN, 1,2,3-triethyl-5-oxo-3-pyrazolin-4-yl thiocyanate] | 45 | 67 | – | – |
| Cc1c(SC#N)c(=O)n(-c2ccc3ccccc3c2)n1C [Formula I: 2-Naphthyl, CH3, CH3, SCN, 2,3-dimethyl-1-naphthyl-5-oxo-3-pyrazolin-4-yl thiocyanate] | – | 3.8 | – | – |
| Cc1c(SSc2c(C)n(C)n(-c3ccc4ccccc4c3)c2=O)c(=O)n(-c2ccc3ccccc3c2)n1C [Formula II: 2-Naphthyl, CH3, CH3, HCl, 2,3-dimethyl-1-naphthyl-5-oxo-3-pyrazolin-4-yl disulfide] | – | – | 3.3 | – |
| CCn1c(C)c(SSc2c(C)n(CC)n(Cc3ccccc3)c2=O)c(=O)n1Cc1ccccc1 [Formula II: CH2 Ph, C2 H5, CH3, 1-benzyl-2-ethyl-3-methyl-5-oxo-3-pyrazolin-4-yl disulfide] | – | – | 4.3 | IC50 [1, 3]: 3.8 µM |
| Cc1c(SC#N)c(=O)n(-c2c(Cl)cccc2Cl)n1C [Formula I: 2,6-Cl2 Ph, CH3, CH3, SCN, 2,3-dimethyl-5-oxo-1-(2,6-dichlorophenyl)-3-pyrazolin-4-yl thiocyanate] | 29.9 | – | – | IC50 (CRF receptor; [5]): 18.9 µM |
| CCCn1c(C)c(SC#N)c(=O)n1-c1ccccc1 [Formula I: Ph, (CH2)2 CH3, CH3, SCN, 3-methyl-5-oxo-1-phenyl-2-propyl-3-pyrazolin-4-yl thiocyanate] | 16.9 | – | – | IC50 (CRF receptor; [5]): 32 µM |
| CCn1c(C)c(SSc2c(C)n(CC)n(-c3ccccc3)c2=O)c(=O)n1-c1ccccc1 [Formula II: Ph, C2 H5, CH3, 2-ethyl-3-methyl-5-oxo-1-phenyl-3-pyrazolin-4-yl disulfide] | – | – | 4.8 | IC50 [1, 3]: 1 µM |
| CCn1c(C)c(SC#N)c(=O)n1-c1ccc(Cl)c(Cl)c1 [Formula I: 3,4 Cl2 Ph, C2 H5, CH3, SCN, 2-ethyl-3-methyl-5-oxo-1-(3,4-dichlorophenyl)-3-pyrazolin-4-yl thiocyanate] | 1.4 | – | – | IC50 (CRF receptor; [5]): 4.9 µM |
| Cc1c(SC#N)c(=O)n(-c2ccccc2)n1C [Formula I: Ph, CH3, CH3, SCN, 2,3-dimethyl-5-oxo-1-phenyl-3-pyrazolin-4-yl thiocyanate] | 19.5 | 16 | – | – |
| Cn1c(N)c(SC#N)c(=O)n1-c1ccccc1 [Formula I: Ph, CH3, NH2, SCN, 3-amino-2-methyl-5-oxo-1-phenyl-3-pyrazolin-4-yl thiocyanate] | 49.6 | 14.4 | – | – |
| Cc1c(SC#N)c(=O)n(-c2ccc(I)cc2)n1C [Formula I: 4-IPh, CH3, CH3, SCN, 2,3-dimethyl-5-oxo-1-(4-iodophenyl)-3-pyrazolin-4-yl thiocyanate] | – | 6.5 | – | – |
| Cc1c(SSc2c(C)n(C)n(-c3ccc(I)cc3)c2=O)c(=O)n(-c2ccc(I)cc2)n1C [Formula II: 4-IPh, CH3, CH3, 2,3-dimethyl-5-oxo-1-(4-iodophenyl)-3-pyrazolin-4-yl disulfide] | – | – | 5.1 | – |
| CCn1c(C)c(SC#N)c(=O)n1-c1ccc([N+](=O)[O-])cc1 [Formula I: 4-NO2 Ph, C2 H5, CH3, SCN, 2-ethyl-3-methyl-5-oxo-1-(4-nitrophenyl)-3-pyrazolin-4-yl thiocyanate] | 2 | 5.7 | – | – |
| Cc1c(SC#N)c(=O)[nH]n1-c1ccc([N+](=O)[O-])cc1 [Formula I: H, 4-NO2 Ph, CH3, SCN] | 69.3 | 32 | – | – |
| Cc1c(SSc2c(C)n(C)n(-c3cccc(Cl)n3)c2=O)c(=O)n(-c2cccc(Cl)n2)n1C [Formula II: 6-Cl-2-Pyr, CH3, CH3, 2,3-dimethyl-5-oxo-1-(6-chloro-2-pyridyl)-3-pyrazolin-4-yl disulfide] | – | – | 4.3 | – |
| Cc1c(SC#N)c(=O)n(-c2cccc(C#N)c2)n1C [Formula I: 3-CNPh, CH3, CH3, SCN, 2,3-dimethyl-5-oxo-1-(3-cyanophenyl)-3-pyrazolin-4-yl thiocyanate] | 6.9 | 15.5 | – | – |
| CCn1c(C)c(SSc2c(C)n(CC)n(-c3ccc(Cl)c(Cl)c3)c2=O)c(=O)n1-c1ccc(Cl)c(Cl)c1 [Formula II: 3,4-Cl2 Ph, C2 H5, CH3, 2-ethyl-3-methyl-5-oxo-1-(3,4-dichlorophenyl)-3-pyrazolin-4-yl disulfide] | – | – | 2.9 | IC50 [1, 3]: 4.3 µM |
| CCc1c(SC#N)c(=O)n(-c2ccc(OC)cc2)n1C [Formula I: 4-OMePh, CH3, C2 H5, SCN] | 11.9 | 9.3 | – | – |
| Cc1ccc(-n2c(=O)c(SC#N)c(C)n2C)cc1 [Formula I: 4-CH3 Ph, CH3, CH3, SCN, 2,3-dimethyl-5-oxo-1-(4-methylphenyl)-3-pyrazolin-4-yl thiocyanate] | 9.1 | 8.6 | – | – |
| CCn1c(C)c(SC#N)c(=O)n1Cc1ccccc1 [Formula I: CH2 Ph, CH2 CH3, CH3, SCN, 1-benzyl-2-ethyl-3-methyl-5-oxo-3-pyrazolin-4-yl thiocyanate] | 39.9 | 17 | – | – |
| Cn1c(CN2CCOCC2)c(SC#N)c(=O)n1-c1ccccc1 [Formula I: Ph, CH3, MorCH2, SCN, 2-methyl-3-mopholinomethyl-5-oxo-1-phenyl-3-pyrazolin-4-yl thiocyanate] | – | 39.8 | – | – |
| Cn1c(CN2CCOCC2)c(SSc2c(CN3CCOCC3)n(C)n(-c3ccccc3)c2=O)c(=O)n1-c1ccccc1 [Formula II: Ph, CH3, MorCH2, 2HCl, 2-methyl-3-morpholinylmethyl-5-oxo-1-phenyl-3-pyrazolin-4-yl disulfide] | – | – | 8.2 | – |
